Source: patent US5158963A, “1-4-dihydropyridine derivative, process for preparing the same and pharmaceutical composition containing the same” (Kaken Pharmaceutical Co., Ltd., priority 1989, dated 1992)
Entries after “also recorded” stand apart in the source; their conditions may differ.

What was measured:
[1] = tested on: immobility time of forced swimming test; assay: Activity against immobility time of forced swimming test in mice; format: in vivo, mouse (Slc:ICR male mice); details: oral; for effect on the immobility time (in words): 200 mg/kg
Experimental: In each group 6 Slc:ICR male mice weighing 25 to 32 g (5 weeks) were bred at the room temperature of 22° to 24° C. under an environment of 60% humidity for 1 week, and then the bred mice were subjected to the following test. The test was carried out by monitering action to voluntarily escape with TV camera when a mouse was put into a cylinder of which inner diameter was 11 cm wherein 17 cm of water being the temperature 25° C. as added. As indication immobility time for 6 minutes was measured. In the test mice were employed which were compulsorily swun for 6 minutes in once per day for continuous 3 day. The investigation for immobility time was carried out by measuring immobility time for 6 minutes 1 hour after oral administration of a test compound. Each of test compound was suspended in a 0.5% solution of methyl cellulose used as a control group. Significant difference is shown with the significance level (* : p<0.05) obtained by comparing data of control group by LSD method.

[2] = tested on: tonic extensive convulsion (maximal electroshock-induced seizures); assay: Activity against maximal electroshock-induced seizures in mice; format: in vivo, mouse (Slc:ddy male mice); details: 200 mg/kg, oral
Source text: In each group six Slc: ddy male mice weighing 26 to 31 g (5 weeks) were employed. Sixty minutes after oral administration of a test compound, corneal electrodes which were wet by physiological saline were contacted with both eyes of a mouse. Then, appearance of tonic extensive convulsion (TE) caused by electrifying under a stimulation condition of 50 mA, 1000 V and 0.2 sec by means of the apparatus of Woodburg & Davenport (made by Kyoto Keisokuki) was judged as indication.
Each of diphenylhydantoin, the compounds Nos. 2, 4, 5, 6, 7, 50, 51 and 52 of the present invention (refer Table 1, hereinafter the same) and nimodipine was suspended in a 0.5% solution of methyl cellulose to subject the test. Flunarizine was suspended in a 5% solution of gum arabic to subject the test.

[3] = tested on: decapitation induced hypoxia; assay: Activity against decapitation induced hypoxia in mice; format: in vivo, mouse (Slc:ddy male mice); details: Mus musculus, 1 h, oral, 60 min before decapitation, duration of gasping vs control, read-out: Inhibition rate
Experimental: In each group five Slc:ddy male mice weighing 20 to 22 g (4 weeks) were employed. Sixty minutes after oral administration of a test compound, mice were decapitated with a guillotine. After the decapitation, duration of gasping of head was measured with a timer (CT-916 Type, made by HATTORI SEIKO CO., LTD.) gearing into the guillotine.
Each of test compound was suspended in a 0.5% solution of methyl cellulose and administered. Inhibition rate was calculated by comparing with a 0.5% aqueous solution of methyl cellulose as control. That is, the inhibition rate was calculated by the following formula. [formula]

[4] = tested on: blood pressure; assay: Activity for blood pressure in rats; format: in vivo, rat (Wister male rats); details: oral; for Blood pressure: 100 mg/kg
Experimental: In each group 4 Wister male rats weighing 200 to 300 g (10 to 15 weeks) were employed. The day before a test, rats were anesthetized with eter, and a polyethylene tube was inserted into aorta abdominalis of a rat. The other end of the polyethylene tube was led out of the rat's body. The led polyethylene tube was connected with a pressure transducer (RM-85, made by Yamamoto Kohden). Blood pressure was measured under a condition of no restriction.

Structure (SMILES)	effect on the immobility time (in words) [1]	effect on immobility time of forced swimming test (in words) [1]	inhibitory activity against tonic extensive convulsion (share of cases) [2]	inhibition in vivo at 100 mg/kg [3] [%]	inhibition in vivo at 30 mg/kg [3] [%]	Blood pressure ([4]; after 15 min.) [mmHg]	Blood pressure ([4]; after 30 min.) [mmHg]	Blood pressure ([4]; after 60 min.) [mmHg]	Blood pressure ([4]; after 120 min.) [mmHg]	activity for decreasing blood pressure (in words) ([4]; normal rats)	inhibition in vivo at 10 mg/kg ([3]; 10 mg/kg) [%]
C#Cc1cccc(C2C(C(=O)OCC)=C(C)NC(C)=C2C(=O)OCCC)c1 (centres unmarked) [Compound No. 5, 5-Ethoxycarbonyl-3-n-propoxycarbonyl-1,4-dihydro-2,6-dimethyl-4-(3-ethynylphenyl)pyridine]	showed the effect on the immobility time	immobility time of forced swimming test reduced	two thirds	–	–	–	–	–	–	–	–
C#Cc1cccc(C2C(C(=O)OC(C)C)=C(C)NC(C)=C2C(=O)OC(C)C)c1 [Compound No. 6, 3,5-Diisopropoxycarbonyl-1,4-dihydro-2,6-dimethyl-4-(3-ethynylphenyl)pyridine]	showed the effect on the immobility time	immobility time of forced swimming test reduced	a third	–	–	–	–	–	–	–	–
C#Cc1cccc(C2C(C(=O)OC)=C(C)NC(C)=C2C(=O)OC(C)C)c1 (centres unmarked) [Compound No. 7, 5-Isopropoxycarbonyl-3-methoxycarbonyl-1,4-dihydro-2,6-dimethyl-4-(3-ethynylphenyl)pyridine]	showed the effect on the immobility time	immobility time of forced swimming test reduced	a third	–	–	–	–	–	–	–	–
C#Cc1cccc(C2C(C(=O)OCC)=C(C)NC(C)=C2C(=O)OCC=C)c1 (centres unmarked) [Compound No. 50, 5-Ethoxycarbonyl-3-allyloxycarbonyl-1,4-dihydro-2,6-dimethyl-4-(3-ethynylphenyl)pyridine]	showed the effect on the immobility time	immobility time of forced swimming test reduced	all cases	31.1	–	–	–	–	–	–	–
C#Cc1cccc(C2C(C(=O)OCC)=C(C)NC(C)=C2C(=O)OCC=CC)c1 (centres unmarked) [Compound No. 51, 5-Ethoxycarbonyl-3-crotyloxycarbonyl-1,4-dihydro-2,6-dimethyl-4-(3-ethynylphenyl)pyridine]	showed the effect on the immobility time	immobility time of forced swimming test reduced	all cases	28.3	25.7	–	–	–	–	–	–
C#Cc1cccc(C2C(C(=O)OC)=C(C)NC(C)=C2C(=O)OCC=C(C)C)c1 (centres unmarked) [Compound No. 52, 5-Methoxycarbonyl-3-(3-methyl-2-butenyloxycarbonyl)-1,4-dihydro-2,6-dimethyl-4-(3-ethynylphenyl)pyridine]	showed the effect on the immobility time	immobility time of forced swimming test reduced	two thirds	26.4	–	–	–	–	–	–	–
COC(=O)C1=C(C)NC(C)=C(C(=O)OCCN(C)Cc2ccccc2)C1c1cccc([N+](=O)[O-])c1 (centres unmarked) [Nicardipine, 2-(N-benzyl-N-methylamino)ethyl,methyl 2,6-dimethyl-4-(3-nitrophenyl)-1,4-dihydropyridine-3,5-dicarboxylate hydro chloride, reference compound]	–	–	–	–	6.8	100.0	67.2	69.2	67.2	strong antihypertensive activity; also recorded: remarkable activity for decreasing blood pressure	4.2
